From patent US8759355B2, “Aryl pyrimidine derivatives, preparation methods and pharmaceutical uses thereof” (Institute of Pharmacology and Toxicology Academy of …, priority 2008, dated 2014) come the findings set out here.

What is called melting point is the temperature of the solid-liquid transition.

In one data set the target is T1, human PPARδ (Homo sapiens, UniProt Q03181).
T1 construct: expressed in transfected cells; host or cells: HEK-293 cells (transient co-transfection)
T1 sequence (Q03181 211-439 limits assumed): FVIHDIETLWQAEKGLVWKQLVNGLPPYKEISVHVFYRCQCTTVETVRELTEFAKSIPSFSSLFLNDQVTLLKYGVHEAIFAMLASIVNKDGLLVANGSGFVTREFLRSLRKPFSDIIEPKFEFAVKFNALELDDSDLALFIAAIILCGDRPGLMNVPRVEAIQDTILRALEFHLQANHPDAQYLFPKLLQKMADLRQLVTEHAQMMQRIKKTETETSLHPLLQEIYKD
Briefly: Transfection determination: pM-hPPARδ/GAL4 chimeric receptor luciferase reporter, transient transfection in HEK-293 cells. Type of data set: cell-based. The settings on record: 1 μM, luciferase read 24 hours after administration, GW501516 positive control. From the text: Transfection Determination
The functional titration of the transient transfection of the compounds in HEK-293 cells was screened to determine their ability to activate PPAR subtype. Chimeric acceptor system was built in advance to compare relative transcription activity of acceptor subtype to same target gene and prevent the complexness of endogenous acceptor activation due to the explanation of results. Ligand binding domain of human PPARδ was fused to yeast transcription factor GAL4DNA binding domain, and then linked to expression carrier pM of mammal to build pM-hPPARδ/GAL4 plasmids. GAL4DNA binding region was connected to pB4-tk-luc to pB4-RES-tk-luc (a report gene of firefly luciferin enzyme containing 5 templates of GAL4DNA binding site). pRL-CMV-Rluc was used as internal standard to correct transfection efficiency and endogenous influence and reduce experimental error.
HEK-293 cells were grown in 48 wells plate, the density of cells was 2-4×10^4/well. The culture medium was 1640 of 10% defatted FCS free of phenol red and antibiotics. After 48 hours, the culture medium was changed as 1640 of 5% defatted FCS free of phenol red and antibiotics, and then pM-hPPARδ/GAL4, pB4-RES-tk-luc and pRL-CMV-Rluc plasmids were co-transfected in HEK-293 cells. The drug was administered after 24 hours, and the luminous intensity of luciferin enzyme was determined 24 hours after administration. The control was 0.2% DMSO.
For orientation: A reporter such as luciferase makes a cellular process visible.
On to “2-methyl-2-{2-methyl-4-[2-(4-trichloromethylphenyl)-pyrimidin-4-yl-methylthio]-phenoxy}-propionic acid [example 20]”, for which the “Activation ability % (Activation of part of compounds for PPARδ)” value is given as 144.86%.
Same read-out and setting: in the case of `Cc1cc(SCc2ccnc(-c3ccc(C(F)(F)F)cc3)n2)ccc1OCC(=O)O` [example 7, {2-methyl-4-[2-(4-trifluoromethylphenyl)-pyrimidin-4-yl-methylthio]phenoxy}-acetic acid] it was 94.86%; in that of `Cc1cc(SCc2ccnc(-c3ccc(F)cc3)n2)ccc1OCC(=O)O` [example 8, {2-methyl-4-[2-(4-fluorophenyl)-pyrimidin-4-yl-methylthio]-phenoxy}-acetic acid], 135.46%.
With `Cc1cc(SCc2ccnc(-c3ccc(Cl)cc3)n2)ccc1OCC(=O)O` [example 9, {2-methyl-4-[2-(4-chlorophenyl)-pyrimidin-4-yl-methylthio]-phenoxy}-acetic acid], the “Activation ability % (Activation of part of compounds for PPARδ)” value stood at 88.35%.
On to `Cc1cc(SCc2ccnc(-c3ccc(Br)cc3)n2)ccc1OCC(=O)O` [example 10, {2-methyl-4-[2-(4-bromophenyl)-pyrimidin-4-yl-methylthio]-phenoxy}-acetic acid], for which the “Activation ability % (Activation of part of compounds for PPARδ)” value is on record as 108.55%.
Still for that read-out and setting: in the case of `Cc1cc(SCc2ccnc(-c3ccc(Cl)cc3)n2)ccc1OC(C)(C)C(=O)O` [example 17, 2-methyl-2-{2-methyl-4-[2-(4-chlorophenyl)-pyrimidin-4-yl-methylthio]-phenoxy}-propionic acid] it was 119.51%.
Same read-out and setting: in the case of `Cc1cc(SCc2ccnc(-c3ccc(F)cc3)n2)ccc1OC(C)(C)C(=O)O` [example 18, 2-methyl-2-{2-methyl-4-[2-(4-fluorophenyl)-pyrimidin-4-yl-methylthio]-phenoxy}-propionic acid] it was 103.26%.

Tested on in a further data set: not given
Assay: not given
Details: not given
On to `O=C(O)CCc1ccc(OCc2ccnc(-c3ccc(F)cc3)n2)cc1` [Example 1, 3-{4-[2-(4-fluorophenyl)-pyrimidin-4-yl-methoxy]-phenyl}-propionic acid], for which the melting point is 167.2 to 168 °C.
The same measure, in the same setting: the same measure for `O=C(O)CCc1ccc(OCc2ccnc(-c3ccc(Cl)cc3)n2)cc1` [Example 2, 3-{4-[2-(4-chlorophenyl)-pyrimidin-4-yl-methoxy]-phenyl}-propionic acid]: 168.3 to 169.4 °C.
The same measure, in the same setting: in the case of `O=C(O)CCc1ccc(OCc2ccnc(-c3ccc(Br)cc3)n2)cc1` [Example 3, 3-{4-[2-(4-bromophenyl)-pyrimidin-4-yl-methoxy]-phenyl}-propionic acid] it was 168 to 168.8 °C; in that of `O=C(O)CCc1ccc(OCc2ccnc(-c3ccc(C(F)(F)F)cc3)n2)cc1` [Example 4, 3-{4-[2-(4-trifluoromethylphenyl)-pyrimidin-4-yl-methoxy]-phenyl}-propionic acid], 146.6 to 147.5 °C; in that of `O=C(O)CCc1ccc(OCc2ccnc(-c3c(F)cc(F)cc3F)n2)cc1` [Example 5, 3-{4-[2-(2,4,6-trifluorophenyl)-pyrimidin-4-yl-methoxy]-phenyl}-propionic acid], 143.8 to 144.1 °C.
Same read-out and setting: the same measure for `Cc1cc(SCc2ccnc(-c3ccc(C(F)(F)F)cc3)n2)ccc1OCC(=O)O` [example 7, {2-methyl-4-[2-(4-trifluoromethylphenyl)-pyrimidin-4-yl-methylthio]phenoxy}-acetic acid]: 159.3 to 160.2 °C.
In turn, `Cc1cc(SCc2ccnc(-c3ccc(F)cc3)n2)ccc1OC(C)(C)C(=O)O` [example 18, 2-methyl-2-{2-methyl-4-[2-(4-fluorophenyl)-pyrimidin-4-yl-methylthio]-phenoxy}-propionic acid] registered a melting point of 139.5 to 140.4 °C.
